IC50 data for 5 compounds are collected here from US20260098025A1, “DIMERIC COMPOUNDS AS INHIBITORS OF GLYCOGEN SYNTHASE 1 (GYS1) AND METHODS OF USE THEREOF” (Maze Therapeutics, Inc., priority 2022, published 2026).

The target of this assay is T1, recombinant hGYS1/GN1 protein (Homo sapiens, UniProt P13807).
T1 sequence (P13807 1-737): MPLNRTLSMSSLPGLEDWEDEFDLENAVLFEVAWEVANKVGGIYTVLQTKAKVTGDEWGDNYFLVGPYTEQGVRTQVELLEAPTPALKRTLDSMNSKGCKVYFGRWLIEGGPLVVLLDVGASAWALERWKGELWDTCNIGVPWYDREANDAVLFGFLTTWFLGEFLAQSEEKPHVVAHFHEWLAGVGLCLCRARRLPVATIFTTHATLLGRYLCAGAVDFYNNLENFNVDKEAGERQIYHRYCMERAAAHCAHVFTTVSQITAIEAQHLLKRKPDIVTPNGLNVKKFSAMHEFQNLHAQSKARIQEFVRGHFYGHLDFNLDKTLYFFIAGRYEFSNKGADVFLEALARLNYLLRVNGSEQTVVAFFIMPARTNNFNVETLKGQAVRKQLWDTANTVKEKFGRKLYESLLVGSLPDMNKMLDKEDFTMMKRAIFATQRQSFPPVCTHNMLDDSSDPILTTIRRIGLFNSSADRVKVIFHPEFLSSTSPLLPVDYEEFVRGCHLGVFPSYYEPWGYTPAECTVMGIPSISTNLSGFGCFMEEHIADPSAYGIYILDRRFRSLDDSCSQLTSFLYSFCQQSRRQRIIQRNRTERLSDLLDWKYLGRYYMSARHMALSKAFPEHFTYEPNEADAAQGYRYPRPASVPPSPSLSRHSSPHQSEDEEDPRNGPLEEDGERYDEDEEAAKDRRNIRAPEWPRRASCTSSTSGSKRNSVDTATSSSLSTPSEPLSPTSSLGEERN
T1 sequence (P46976 1-350 partner): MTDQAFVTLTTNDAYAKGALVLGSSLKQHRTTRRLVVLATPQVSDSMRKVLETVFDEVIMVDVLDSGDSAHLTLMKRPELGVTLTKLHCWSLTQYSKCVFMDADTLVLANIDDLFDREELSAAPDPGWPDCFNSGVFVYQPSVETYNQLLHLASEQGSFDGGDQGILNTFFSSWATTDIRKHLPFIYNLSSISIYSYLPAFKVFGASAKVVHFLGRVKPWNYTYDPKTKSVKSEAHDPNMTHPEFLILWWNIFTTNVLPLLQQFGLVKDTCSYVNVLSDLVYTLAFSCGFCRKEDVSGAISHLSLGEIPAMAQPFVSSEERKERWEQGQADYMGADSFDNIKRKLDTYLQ
The assay is described as follows: GYS1 coupled enzyme assay (PK/LDH, NADH absorbance at 340 nm). To be noted: geometric mean of at least 2 assay runs on separate days; hGYS1/GN1 50 nM, Glucose-6-Phosphate 1 mM, UDP-Glucose 0.8 mM. Format: biochemical. From the text:
The GYS1 coupled enzyme assay is a kinetic biochemical assay that indirectly quantifies the rate of glycogen synthesis by coupling the conversion of GYS1 substrate UDP-glucose into UDP with downstream enzymatic reactions. UDP is released from UDP-glucose as glucose monomers are linked into the growing glycogen strand by GYS1. The coupled assay then proceeds with pyruvate kinase utilizing UDP and phospho(enol)pyruvate (PEP) to form pyruvate. Lactate dehydrogenase then converts pyruvate and NADH into lactate and NAD+. Oxidation of NADH to NAD+ can be measured continuously with a plate reader by quantifying the decrease in NADH absorbance at 340 nm over time.
Compounds that inhibit the hGYS1 enzyme and, subsequently, the downstream conversion of NADH to NAD+, were tested using assay ready plates (black, clear bottom 384 well plates) in a final DMSO reaction volume of 2.5% DMSO. The Assay Buffer contained 50 mM Tris pH 7.5, 2 mM MgCl2, and 100 mM KCl. Fresh stocks of BSA at a final concentration of 0.02% and TCEP at 1 mM were added before splitting buffer into hGYS1 buffer and substrate buffer. To the hGYS1 buffer, rabbit liver glycogen was added at a final concentration of 0.2% glycogen. Glucose-6-Phosphate was added at 1 mM, recombinant hGYS1/GN1 protein was added at 50 nM to the substrate buffer, phosphoenolpyruvate (PEP) was added at 2 mM, UDP-Glucose was added at 0.8 mM, NADH) was added at 0.6 mM, and Pyruvate Kinase/Lactate Dehydrogenase was added at 20 units/mL. The reaction was initiated by mixing hGYS1 buffer and substrate buffer at a 1:1 ratio. Both buffers were plated using a liquid dispensing device with hGYS1 buffer plated first followed by the substrate buffer. Plates were spun briefly to eliminate air bubbles and are immediately read in continuous mode at an absorbance of 340 nm, for 10 time points in one-minute increments, for a total of 10 minutes. The slope from these 10 time points was normalized to the positive and negative control wells. The duplicate % inhibition values are then averaged and fit to a Hill equation for dose response according to the Levenberg-Marquardt algorithm with the Hill equation maximum set to 100 and the minimum set to 0.
The results are shown in Table 2 below, which reports the IC50 of each compound. Unless otherwise specified, IC50 values are reported as the geometric mean of at least 2 assay runs on separate days. Each run represents the average of a technical replicate, where each compound was assayed twice in the same plate. As shown in the table below, the compounds of the present invention are potent inhibitors of human GYS1. A superscript “#” symbol in Table 2 indicates results from a single assay run.
Note that, in Table 2, the compounds are referred to by the corresponding Compound No. in Table 1, which is also referred to in the synthetic examples.
`O=C(N[C@@H](c1ccccc1)c1ccc(C2CC2)c(F)n1)[C@@H]1C[C@@H](F)CN1C(=O)COCCOCCNCCOCCOCCOCC(=O)N1C[C@H](F)C[C@H]1C(=O)N[C@@H](c1ccccc1)c1ccc(C2CC2)c(F)n1` [Compound 13, (2S,2′S,4R,4′R)-1,1′-(3,6,12,15,18-pentaoxa-9-azaicosanedioyl)bis(N-((S)-(5-cyclopropyl-6-fluoropyridin-2-yl)(phenyl)methyl)-4-fluoropyrrolidine-2-carboxamide)]: the IC50 is greater than 10000 nM.
With `Cc1cn(CC(=O)N2C[C@H](F)C[C@H]2C(=O)N[C@@H](c2ccccc2)c2ccc(C3CC3)c(F)n2)c(=O)n(CCOCCn2c(=O)c(C)cn(CC(=O)N3C[C@H](F)C[C@H]3C(=O)N[C@@H](c3ccccc3)c3ccc(C4CC4)c(F)n3)c2=O)c1=O` [Compound 14, (2S,2′S,4R,4′R)-1,1′-(2,2′-((oxybis(ethane-2,1-diyl))bis(5-methyl-2,4-dioxo-3,4-dihydropyrimidine-3,1(2H)-diyl))bis(acetyl))bis(N-((S)-(5-cyclopropyl-6-fluoropyridin-2-yl)(phenyl)methyl)-4-fluoropyrrolidine-2-carboxamide)] the figure was 4.9 nM.
For `Cc1cn(CC(=O)N2C[C@H](F)C[C@H]2C(=O)N[C@@H](c2ccccc2)c2ccc(C3CC3)c(F)n2)c(=O)n(CCOCCOCCn2c(=O)c(C)cn(CC(=O)N3C[C@H](F)C[C@H]3C(=O)N[C@@H](c3ccccc3)c3ccc(C4CC4)c(F)n3)c2=O)c1=O` [Compound 15, (2S,2′S,4R,4′R)-1,1′-(2,2′-(((ethane-1,2-diylbis(oxy))bis(ethane-2,1-diyl))bis(5-methyl-2,4-dioxo-3,4-dihydropyrimidine-3,1(2H)-diyl))bis(acetyl))bis(N-((S)-(5-cyclopropyl-6-fluoropyridin-2-yl)(phenyl)methyl)-4-fluoropyrrolidine-2-carboxamide)] the value was 5.3 nM; for `Cc1cn(CC(=O)N2C[C@H](F)C[C@H]2C(=O)N[C@@H](c2ccccc2)c2ccc(C3CC3)c(F)n2)c(=O)nc1OCCOc1nc(=O)n(CC(=O)N2C[C@H](F)C[C@H]2C(=O)N[C@@H](c2ccccc2)c2ccc(C3CC3)c(F)n2)cc1C` [Compound 16, (2S,2′S,4R,4′R)-1,1′-(2,2′-((ethane-1,2-diylbis(oxy))bis(5-methyl-2-oxopyrimidine-4,1(2H)-diyl))bis(acetyl))bis(N-((S)-(5-cyclopropyl-6-fluoropyridin-2-yl)(phenyl)methyl)-4-fluoropyrrolidine-2-carboxamide)], 23 nM; for `CN(CCOCCOCCOCC(=O)N1C[C@H](F)C[C@H]1C(=O)N[C@@H](c1ccccc1)c1ccc(C2CC2)c(F)n1)CCOCCOCC(=O)N1C[C@H](F)C[C@H]1C(=O)N[C@@H](c1ccccc1)c1ccc(C2CC2)c(F)n1` [Compound 17, (2S,2′S,4R,4′R)-1,1′-(9-methyl-3,6,12,15,18-pentaoxa-9-azaicosanedioyl)bis(N-((S)-(5-cyclopropyl-6-fluoropyridin-2-yl)(phenyl)methyl)-4-fluoropyrrolidine-2-carboxamide)], 7.5 nM.

In general, IC50 refers to the point on the concentration scale where inhibition reaches its midpoint.
